For assay [1], the system named is Sweetpotato Whitefly-crawler (WF) (Bemisia tabaci) (BEMITA). The assay is described as follows: Insecticidal test for Sweetpotato Whitefly-crawler (WF) in foliar spray assay on cotton plants. It counts as in vivo. To be noted: 216 h, read-out: % Control (or Mortality) rating, WF. The method, then: Example B: Insecticidal test for Sweetpotato Whitefly-crawler (WF) (Bemisia tabaci) (BEMITA) in foliar spray assay.
Cotton plants (Gossypium hirsutum) grown in 3-inch pots, with 1 small (4-5 cm) true leaves, were used as test substrate. The plants were infested with 200-400 whitefly eggs 4-5 days prior to chemical application. Four pots with individual plants were used for each treatment. Test compounds (2 mg) were dissolved in 1 mL of acetone solvent, forming stock solutions of 2000 ppm test compound. The stock solutions were diluted 10× with 0.025% Tween 20 in H2O (diluents) to obtain the solution at 200 ppm test compound. A hand-held aspirator-type sprayer was used for spraying a solution to both sides of cotton leaves until runoff. Reference plants (solvent check) were sprayed with the diluent only containing 10% by volume of acetone solvent. Treated plants were held in a holding room for 9 days at approximately 25° C. and ambient relative humidity (RH) prior to grading. Evaluation was conducted by counting the number of live 3-4 nymph stage per plant under a microscope. Percent control was measured by using Abbott's correction formula (W. S. Abbott, “A Method of Computing the Effectiveness of an Insecticide” J. Econ. Entomol. 18 (1925), pp. 265-267) as follows. Corrected % Control=100*(X−Y)/X • where • X=No. of live nymphs on solvent check plants and • Y=No. of live nymphs on treated plants.
(§1) Biological Data for Green Peach Aphid (GPA) (MYZUPE) and Sweetpotato Whitefly-crawler (WF) (BEMITA)” (see table section).

Assay [2] deals with Green Peach Aphid (Myzus persicae) (GPA) (MYZUPE). The assay is described as follows: Bioassay for Green Peach Aphid (GPA), foliar spray on cabbage seedlings. Type of assay: in vivo. The conditions noted are these: 72 h, read-out: % Control (or Mortality) rating, GPA. On the procedure: Example A: Bioassay for Green Peach Aphid (Myzus persicae) (GPA) (MYZUPE).
Cabbage seedlings grown in 3-inch pots, with 2-3 small (3-5 cm) true leaves, were used as test substrate. The seedlings were infested with 20-50 GPA (wingless adult and nymph stages) one day prior to chemical application. Four pots with individual seedlings were used for each treatment. Test compounds (2 mg) were dissolved in 2 mL of acetone/methanol (1:1) solvent, forming stock solutions of 1000 ppm test compound. The stock solutions were diluted 5× with 0.025% Tween 20 in H2O to obtain the solution at 200 ppm test compound. A hand-held aspirator-type sprayer was used for spraying a solution to both sides of […] leaves until runoff. Reference plants (solvent check) were sprayed with the diluent only containing 20% by volume of acetone/methanol (1:1) solvent. Treated plants were held in a holding room for three days at approximately 25° C. and ambient relative humidity (RH) prior to grading. Evaluation was conducted by counting the number of live aphids per plant under a microscope. Percent control was measured by using Abbott's correction formula (W. S. Abbott, “A Method of Computing the Effectiveness of an Insecticide” J. Econ. Entomol. 18 (1925), pp. 265-267) as follows. Corrected % Control=100*(X−Y)/X • where • X=No. of live aphids on solvent check plants and • Y=No. of live aphids on treated plants
as §1

Where [3] appears, read: 200 ppm foliar spray, cotton plants, graded after 9 days, Abbott corrected % control.
Setting [4] is: 200 ppm foliar spray, cabbage seedlings, graded after three days, Abbott corrected % control.

Like-named read-outs stand apart in the source and are kept apart here.

For orientation: mortality means the percentage killed.

With `CCN(C(=O)CCS(=O)(=O)CCC(F)(F)F)c1sc(-c2ccc[n+]([O-])c2)nc1Cl` [Compound P3, 3-(4-Chloro-5-(N-ethyl-3-((3,3,3-trifluoropropyl)sulfonyl)propanamido)thiazol-2-yl)pyridine 1-oxide], the mortality at 200 ppm in assay [1] (setting [3]) and in assay [2] (setting [4]) was 80 to 100% throughout.
Consider `CCN(C(=O)CC[S+](C)[O-])c1sc(-c2ccc[n+]([O-])c2)nc1Cl` (centres unmarked) [Compound P5, 3-(4-Chloro-5-(N-ethyl-3-(methylsulfinyl)propanamido)thiazol-2-yl)pyridine 1-oxide], for which the mortality at 200 ppm in assay [1] (setting [3]) and in assay [2] (setting [4]) was 80 to 100% each time.
For `CCN(C(=O)C(C)CSC)c1sc(-c2ccc[n+]([O-])c2)nc1Cl` (centres unmarked) [Compound P6, 3-(4-Chloro-5-(N-ethyl-2-methyl-3-(methylthio)propanamido)thiazol-2-yl)pyridine 1-oxide], the mortality at 200 ppm in assay [1] (setting [3]) and in assay [2] (setting [4]) was 80 to 100% each time.
On to `Cc1nc(-c2cc(F)c[n+]([O-])c2)sc1N(C)C(=O)OC(C)(C)C` [CA1, 3-(5-((tert-Butoxycarbonyl)(methyl)amino)-4-methylthiazol-2-yl)-5-fluoropyridine 1-oxide], for which the figures for the mortality at 200 ppm in assay [1] (foliar) and in assay [2] (foliar) were 0 to 80% and 80 to 100%, respectively.
Take `CSCCC(=O)Nc1sc(-c2cccnc2)nc1Cl` [Compound C3, N-(4-chloro-2-(pyridin-3-yl)thiazol-5-yl)-3-(methylthio)propanamide]: the figures for the mortality at 200 ppm in assay [1] (setting [3]) and in assay [2] (setting [4]) were 0 to 80% and 80 to 100%, respectively.
Take `CCN(C(=O)C(C)C[S+](C)[O-])c1sc(-c2ccc[n+]([O-])c2)nc1Cl` (centres unmarked) [Compound P7, 3-(4-Chloro-5-(N-ethyl-2-methyl-3-(methylsulfinyl)propanamido)thiazol-2-yl)pyridine 1-oxide]: the mortality at 200 ppm in assay [1] (setting [3]) and in assay [2] (setting [4]) was 80 to 100% throughout.
With `CCN(C(=O)C(C)CS(C)(=O)=O)c1sc(-c2ccc[n+]([O-])c2)nc1Cl` (centres unmarked) [Compound P8, 3-(4-Chloro-5-(N-ethyl-2-methyl-3-(methylsulfonyl)propanamido)thiazol-2-yl)pyridine 1-oxide], the mortality at 200 ppm in assay [1] (setting [3]) and in assay [2] (setting [4]) was 80 to 100% each time.
In the case of `CCN(C(=O)CCSCCC(F)(F)F)c1sc(-c2ccc[n+]([O-])c2)nc1Cl` [Compound P1, 3-(4-chloro-5-(N-ethyl-3-((3,3,3-trifluoropropyl)thio)propanamido)thiazol-2-yl)pyridine 1-oxide], the mortality at 200 ppm in assay [1] (setting [3]) and in assay [2] (setting [4]) was 80 to 100% in each case.
For the compound `CS(=O)(=O)CCC(=O)Nc1sc(-c2ccc[n+]([O-])c2)nc1Cl` [Compound F2], the mortality at 200 ppm in assay [1] (setting [3]) was in the range of 0 to 80%; in assay [2] (setting [4]), 80 to 100%.
Consider `CCN(C(=O)CCSC)c1sc(-c2ccc[n+]([O-])c2)nc1Cl` [Compound P4, 3-(4-Chloro-5-(N-ethyl-3-(methylthio)propanamido)thiazol-2-yl) pyridine 1-oxide], for which the mortality at 200 ppm in assay [1] (setting [3]) and in assay [2] (setting [4]) was 80 to 100% each time.
Take `Cc1nc(-c2cc(F)c[n+]([O-])c2)sc1N(C)C(=O)CCS(C)(=O)=O` [FA2, 3-Fluoro-5-(4-methyl-5-(N-methyl-3-(methylsulfonyl)propanamido)thiazol-2-yl)pyridine 1-oxide]: the mortality at 200 ppm in assay [1] (setting [3]) and in assay [2] (setting [4]) was 80 to 100% in each case.
Take `Cc1nc(-c2cc(F)c[n+]([O-])c2)sc1N(C)C(=O)CC[S+](C)[O-]` (centres unmarked) [FA3, 3-Fluoro-5-(4-methyl-5-(N-methyl-3-(methylsulfinyl)propanamido)thiazol-2-yl)pyridine 1-oxide]: the mortality at 200 ppm in assay [1] (setting [3]) and in assay [2] (setting [4]) was 80 to 100% in each case.
Regarding `CCN(C(=O)CCS(C)(=O)=O)c1sc(-c2ccc[n+]([O-])c2)nc1Cl` [Compound F3, 3-(4-chloro-5-(N-ethyl-3-(methylsulfonyl)propanamido)thiazol-2-yl)pyridine 1-oxide], the mortality at 200 ppm in assay [1] (setting [3]) and in assay [2] (setting [4]) was 80 to 100% in each case.
As to `CC(CS(C)(=O)=O)C(=O)N(C)c1sc(-c2ccc[n+]([O-])c2)nc1Cl` (centres unmarked) [Compound F1, 3-(4-Chloro-5-(N,2-dimethyl-3-(methylsulfonyl)propanamido)thiazol-2yl) pyridine 1-oxide], the mortality at 200 ppm in assay [1] (setting [3]) lay within 0 to 80%; in assay [2] (setting [4]) it was 80 to 100%.
With `CCN(C(=O)CC[S+]([O-])CCC(F)(F)F)c1sc(-c2ccc[n+]([O-])c2)nc1Cl` (centres unmarked) [Compound P2, 3-(4-Chloro-5-(N-ethyl-3-((3,3,3-trifluoropropyl)sulfinyl)propanamido)thiazol-2-yl)pyridine 1-oxide], the mortality at 200 ppm in assay [1] (setting [3]) and in assay [2] (setting [4]) was 80 to 100% throughout.
Take `CSCCC(=O)N(C)c1sc(-c2cc(F)c[n+]([O-])c2)nc1C` [FA1, 3-Fluoro-5-(4-methyl-5-(N-methyl-3-(methylthio)propanamido)thiazol-2-yl)pyridine 1-oxide]: the mortality at 200 ppm in assay [1] (setting [3]) and in assay [2] (setting [4]) was 80 to 100% in each case.

Values taken from patent publication US9445597B2, “Pesticidal compositions and related methods” (DOW AGROSCIENCES LLC, priority 2013, dated 2016).
